Holding throughout (assay type): in vivo
Assay [1] has as its system jejunal and ileal crypt cells. Kind of assay: Rat ischemia-reperfusion injury: crypt cell proliferation (5-BrdU). Particulars: IR rats, oral insulin, p<0.05. As for the experimental part:
(§1) Surgical procedure: Following overnight fasting, the animals were anesthetized with intraperitoneal injection of pentobarbital (IP 40 mg/kg). Using sterile techniques, the abdomen was opened using a midline incision. […] IR underwent laparotomy, mobilization and occlusion of SMA and portal vein by vascular clamp for 30 minutes followed by a reperfusion period of 24 hours. Before closure of the abdomen, the rats were resuscitated with a 3-ml intraperitoneal injection of warm 0.9% saline. For all operations, the abdominal cavity was closed in two layers with a running suture of Dexon “S” Polyglycolic Acid 3/0. Rats were allowed free access to water and food. Twenty-four hours later, the rats were anesthetized with intraperitoneal pentobarbital (75 mg/kg) and were sacrificed by open pneumothorax.
Enterocyte proliferation and apoptosis: Crypt cell proliferation was assessed using 5-bromodeoxyuridine (5-BrdU). Standard BrdU labeling reagent (Zymed Laboratories, Inc, San Francisco, Calif.) was injected intraperitoneally at a concentration of 1 ml/100 g body weight 2 hours prior to sacrifice. […] An index of proliferation was determined as the ratio of crypt cells staining positively for BrdU per 10 crypts.

The test system of assay [2] is enterocytes. Kind of assay: Rat ischemia-reperfusion injury: enterocyte apoptosis (TUNEL assay). Conditions: IR rats, oral insulin; IR-untreated 2.8±0.7; p<0.05. The procedure:
as §1
Apoptotic cells were identified using the terminal deoxynucleotidyl transferase-mediated, dUTP nick end-labeling (TUNEL) assay. Terminal deoxynucleotidyl transferase (TdT) (Boehringer Mannheim GmbH, Mannheim, Germany) was used to label DNA strand breaks. Incorporation of fluorescein was detected by anti-fluorescein antibody Fab fragments from sheep, conjugated with horse-radish peroxidase (POD) (Boehringer Mannheim GmbH, Mannheim, Germany). Briefly, five-micrometer paraffin-embedded sections were dewaxed and rehydrated with xylene and graded alcohol. […]

In assay [3] the test system is ischemia-reperfusion (IR) injury in rats. Put plainly: Rat ischemia-reperfusion injury: survival and intestinal mucosal parameters (bowel and mucosal weight, DNA, protein). As for the experimental part: Animals: Animals were obtained from the Rappaport Faculty of Medicine (Technion, Haifa, Israel). Male rats weighing 240-260 g were kept in individual stainless steel cages at constant temperature and humidity, and a 12-hour light-dark cycle was maintained. Rats were fasted 12 hours prior to the experiment with free access to water.
as §1
Intestinal Mucosal Parameters: The small intestine from the pylorus to the ileo-cecal valve was removed and divided into two segments: proximal jejunum and distal ileum. The intestine was split on the antimesenteric border, washed with cold saline, dried, and each segment was weighed. The mucosa was scraped from the underlying tissue with a glass slide and weighed. Bowel and mucosal weights were calculated as mg/cm bowel length/100 g body weight. Mucosal samples were homogenized with TRIzol reagent (Rhenium LTD, Jerusalem). DNA and protein were extracted by the method of Chomczynski [BioTechniques. 15:532, 1993] and were expressed as micrograms per centimeter of bowel per 100 g of body weight. In brief, 100 mg tissue was mixed with 1 ml of TRIzol reagent and homogenized for 2 min. Following a three minute incubation period and centrifugation the contents separated into three phases. DNA was isolated from the interphase using ethanol, washed with sodium citrate and was stabilised with 75% ethanol. Protein was isolated from the lower phase using isopropyl alcohol, washed with guanidine hydrochloride, and stabilised with 100% ethanol. Quantitation of DNA was performed with a spectrophotomer. Concentration of the final protein concentration was detected using Bio-Rad Protein Assay technique.
Statistical analysis: All data are given as mean±SD. Differences between experimental groups were tested for statistical significance (p<0.05) using the nonparametric Kruskal-Wallis ANOVA test, followed by the corrected Mann-Whitney test.

Assay [4] relates to enterocytes. Put plainly: Rat model of SBS: enterocyte apoptosis (TUNEL assay). Particulars: SBS rats, oral insulin. The procedure:
Animal treatment: Animals were obtained from the Rappaport Faculty of Medicine (Technion, Haifa, Israel). Male rats weighing 240-260 g were kept in individual stainless steel cages at constant temperature and humidity, and a 12-hour light-dark cycle was maintained. Rats were fasted 12 hours prior to the experiment with free access to water. Animals underwent one of two surgical procedures: bowel transection and re-anastomosis or 75% bowel resection and anastomosis. General anesthesia was induced with Pentobarbital (IP 40 mg/kg). Using sterile techniques, the abdomen was opened using a midline incision. […]
Group C—SBS-Insulin (SBS-INS, n=13) rats underwent bowel resection and were fed regular chow diet and water containing insulin (ACTRAPID insulin, NOVO NORDISK, Denmark) at concentration of 1 u/ml. Food and fluid intake of animals were monitored as well as weight for a period of 14 days following treatment after which the animals were sacrificed following intraperitoneal injection of pentobarbital (75 mg/kg).
Apoptosis of enterocytes was assessed by terminal […] nick-end labeling (TUNEL) immunohistochemical assay using the I.S. Cell Death Detection kit (Boehringer Mannheim GmbH, Mannheim, Germany). […] For each group, the number of stained cells was counted in at ten villi in areas without necrosis. […]

The mark [5] stands for this setting: IR-INS rats, 24 h reperfusion, IR 18±3, p<0.05.

insulin: the “enterocyte proliferation index in ileum” value in assay [1] (IR 173±8) was 289±26 BrdU positive cells/10 crypts. Also, the “enterocyte proliferation index in jejunum” value in assay [1] (IR 212±18) is 298±21 BrdU positive cells/10 crypts. In the assay on enterocytes [2], the “apoptotic index in ileum” value is reported as 1.2±0.4 TUNEL positive cells/10 villi. In addition, the post-operative mortality entry in assay [3] (IR rats, insulin in drinking water (2%) 3 days prior to and 24 hours following IR) was “no effect”. The same substance had an ileal mucosal weight in assay [3] (IR-INS rats, 24 h reperfusion, IR 5.9±0.6, p<0.05) of 7.3±0.4 mg/cm/100 g. In assay [3] (IR-INS rats, 24 h reperfusion, IR 7.0±0.6, p<0.05), this substance returned a jejunal mucosal weight of 8.9±0.6 mg/cm/100 g. In addition, in assay [3] (setting [5]), the “mucosal protein in ileum” value stood at 25±2 μg/cm/100 g and the “mucosal protein in jejunum” value came out at 28±3 μg/cm/100 g. In assay [3] (IR-INS rats, 24 h reperfusion, IR 20.1±0.7, p<0.05), the “jejunal intestinal (bowel) weight” value is 23±0.8 mg/cm/100 g. Further, the “apoptotic cells number in ileum” value in the assay on enterocytes [4] (vs SBS-untreated) is given as “did not affect”. The “apoptotic index in jejunum” value in the assay on enterocytes [4] (SBS-untreated 29±7, mean±SEM, p<0.05) is listed as 11±3 TUNEL positive cells/10 villi.

For the origin of these results see patent publication US8026211B2, “Methods and formulations for increasing intestinal function” (Technion Research & Development Foundation Ltd., priority 2004, dated 2011).
